Assay results as given in patent US11090410B2 (priority 2011, dated 2021).
Entries after “also recorded” stand apart in the source; their conditions may differ. Like-named read-outs stand apart in the source and are kept apart here.

Test system: acetylcholine receptor clustering in C2C12 mouse myoblast cell line
Assay type: cell-based
Conditions: for acetylcholine receptor clustering behavior: C2C12 cells on fibrin hydrogels, 5 days of treatment or beyond

beads covalently linked to agrin: polystyrene microparticles with agrin linked to the surface using EDAC/sulfo-NHS covalent crosslinking chemistry
acetylcholine receptor clustering behavior: induction of clustering behavior; also recorded: Clustering behavior was verified at areas of contact
acetylcholine receptor clustering behavior (listed as agrin-delivering microparticles): formation of AChR clusters
agrin delivery over longer time periods (e.g., 5 or more days): enabled agrin delivery over longer time periods
